Laboratory results taken from patent US20220389477A1, “METHOD FOR EVALUATING ANTIBIOTIC SUSCEPTIBILITY” (Vrije Universiteit Brussel, priority 2019, published 2022).
In brackets after ≈: the same amount, converted by molar mass. Read-outs that look alike come from different tables or passages of the source.

Experiments:
[1] = system: Escherichia coli culture; assay: Optical third-derivative MIC method, culture in broth; assay type: cell-based; settings: EC/03D177; for MIC: Escherichia coli
Text: The method of FIG. 1 starts at a time equal to zero, t0 (1). Preferably, said t0 is the moment a pure bacteria culture is finished being prepared. Alternatively, said t0 is the moment all wells contain both said bacteria culture and said antimicrobial drug. After the starting of the experiment each well is periodically illuminated with a light source and the intensity of the transmitted light is detected with a photodetector (2). Preferably, each well is illuminated and the intensity of the transmitted light is detected every hour (2). More preferably, each well is illuminated and the intensity of the transmitted light is detected every 5 to 15 min. After a predetermined time length, preferably after 4 hours, a first, a second and a third derivative of said measured intensity is calculated (3) in a first and a second time frame for each well. Preferably, said second time frame is the last measured time frame after the test has been running for said predetermined time length, and said first time frame is the time frame preceding the second time frame. More preferably, said first time frame is between two and three hours and said second time frame is between three and four hours. After the calculation of said derivatives, said first derivative in said second time frame of said reference well is compared to a growth speed threshold value (4). Preferably, said growth speed threshold value is 0.166 (4). If said first derivative in said second time frame of said reference well is larger than or equal to said growth speed threshold value said bacteria culture is classified as Type I (4). If said first derivative in said second time frame of said reference well is smaller than said growth speed threshold value said bacteria culture is classified as Type II (4). Subsequently, independent of the classification of the bacteria culture according to the two types, the method comprises the following steps which are performed for each well or for all wells except said reference well. Both said first and said second time frames are evaluated to see if there is an inflection point present in the second derivative in said first and/or said second time frame (5).
If said first and/or said second time frame comprise said inflection point than said third derivative in said first time frame is compared to said third derivative in said second time frame (6). If said third derivative in said first time frame is larger than said third derivative in said second time frame, then said first time frame and said second time frame are selected as a first and second time frame to be used in a minimal inhibitory concentration determination method (10). If said third derivative in said first time frame is not larger than said third derivative in said second time frame, then said well is illuminated again after a certain time period, preferably an hour, more preferably 5 to 15 min after said predetermined time length said, with a light source and the intensity of the transmitted light is detected with a photodetector forming a new time frame subsequent to said second time frame (7). A third derivative, and possibly also a first and/or a second derivative, is calculated in said new time frame (7). Further, in step (7) a new first time frame is put equal to said second time frame and a new second time frame to equal to said new time frame. Subsequently, said third derivative in said new first time frame is compared to said third derivative in said new second time frame (8). If said derivative in said new first time frame is larger than said third derivative in said new second time frame, then said new first time frame and said new second time frame are selected as a first and second time frame to be used in a minimal inhibitory concentration determination method (10). […]

[2] = system: Escherichia coli culture; assay: Broth microdilution (BMD); assay type: cell-based; settings: culture EC/03D177
[3] = system: Escherichia coli culture; assay: E-test; assay type: cell-based; settings: culture EC/03D177
[4] = system: E-coli; settings: tabulated, known value, cited from earlier work

CC1(C)S[C@@H]2[C@H](NC(=O)[C@H](N)c3ccccc3)C(=O)N2[C@H]1C(=O)O [ampicillin]
heteroresistance determined by the method ([1]; FIG. 5D, overall conclusion): not heteroresistant
HR? at MIC (25%) ([1]; ratio MIC T2/T1): yes (If the ratio of the MIC value in the second time frame over the MIC value in the first time frame is higher than or equal to 8 then the ratio is labelled to be heteroresistant)
HR? at MIC (40%) ([1]; ratio MIC T2/T1): no (If the ratio of the MIC value in the second time frame over the MIC value in the first time frame is lower than or equal to 4 then the ratio is labelled not to be heteroresistant)
HR? at MIC (60%) ([1]; ratio MIC T2/T1): no (If the ratio of the MIC value in the second time frame over the MIC value in the first time frame is lower than or equal to 4 then the ratio is labelled not to be heteroresistant)
HR? at MIC (75%) ([1]; ratio MIC T2/T1): no (If the ratio of the MIC value in the second time frame over the MIC value in the first time frame is lower than or equal to 4 then the ratio is labelled not to be heteroresistant)
MIC ([1]; 3 h-4 h, read-out: MIC (25%) T1): 2 µg/mL (≈ 5.72 µM)
MIC ([1]; 3 h-4 h, read-out: MIC (40%) T1): 2 µg/mL (≈ 5.72 µM)
MIC ([1]; 3 h-4 h, read-out: MIC (60%) T1): 2 µg/mL (≈ 5.72 µM)
MIC ([1]; 3 h-4 h, read-out: MIC (75%) T1): 2 µg/mL (≈ 5.72 µM)
MIC ([1]; 4 h-5 h, read-out: MIC (25%) T2): 8 µg/mL (≈ 22.9 µM)
MIC ([1]; 4 h-5 h, read-out: MIC (40%) T2): 2 µg/mL (≈ 5.72 µM)
MIC ([1]; 4 h-5 h, read-out: MIC (60%) T2): 2 µg/mL (≈ 5.72 µM)
MIC ([1]; 4 h-5 h, read-out: MIC (75%) T2): 2 µg/mL (≈ 5.72 µM)
MIC ([1]; FIG. 5D, overall conclusion, read-out: MIC value determined by the method): 2 µg/mL (≈ 5.72 µM)
MIC [2]: 4 µg/mL (≈ 11.4 µM)
MIC ([3]; Escherichia coli): 2 µg/mL (≈ 5.72 µM)
HR? (E-test) [3]: no
MIC for Ampiciline ([4]; Colony ID. 03D161): 4 µg/mL
MIC for Ampiciline ([4]; Colony ID. 03D177): 2 µg/mL
MIC for Ampiciline ([4]; Colony ID. 03D179): > 32 µg/mL
